Consider 23 compounds from US11261183B2, “Sulfoximine glycosidase inhibitors” (Asceneuron SA, priority 2016, dated 2022).

Data set [1] in a line: Protein binding in mice plasma using Rapid Equilibrium Dialysis. Particulars: male, CD1, mouse, plasma, pH 7.4, CD1 mouse plasma, 37° C. The format is in vitro ADME, CD1 mice. How it is done:
Example B04: Protein binding in mice plasma using Rapid Equilibrium Dialysis
• CD1 Mice Plasma: pooled male, K2-EDTA ([…]2, Bioreclammation, USA • Phosphate Buffered Saline (1×PBS), pH 7.4, 100 mM (Sigma, Cat No. P4417) • RED inserts (Pierce, Cat No. 9006, 8 kDa MWCO) • Sample Analysis: LC-MS/MS Methods • Preparation of DMSO Stock Solution
From 20 mM DMSO stock solutions of reference and test compounds, 1 mM DMSO intermediate working solutions are prepared. From 1 mM intermediate working solutions, 100 μM DMSO working solutions are prepared. • Sample Preparation Procedure:
Selected plasma is brought from −20° C. to 37° C. using water bath before its use. Test solution is prepared by adding the DMSO working solution of the reference or test compound (2 μL; 100 μM) to the selected plasma (198 μL). Spiked plasma (200 μl) is transferred to sample compartment of RED insert placed in the teflon plate. 350 μl of 1×PBS is added in the buffer compartment of RED insert. The teflon plate is covered with sealing mat and agitated at 37° C. for 5 hours at 500 RPM in a Thermomixer. After incubation time, an aliquot of plasma (50 μl) from sample compartment is mixed with blank 1×PBS (50 μl). Similarly, an aliquot of buffer (50 μl) from buffer compartment is mixed with blank plasma (50 μl). Quenching solution (200 μL, acetonitrile containing internal standard tolbutamide (0.5 μg/mL)) is added and the resulting solutions are mixed using a vortex mixer and centrifuged (Eppendorf 5415, 13792 g). Supernatants are analyzed using a Mass Spectrometer. The sample (supernatant fraction, 5 μL) is injected into the LC-MS/MS instrument. • Chromatographic Conditions: LC-MS/MS: API 4000 LC-MS/MS Software: Analyst Version 1.6.1 Column Phenomenex Synergy 30*4.6*5μ Column Oven: 40° C. Mode: ESI Positive Injection volume: 5 μl Flow Rate: […] Buffer: 0.1% Formic acid in Water Method: Isocratic Method/Gradient Composition: A) 0.1% Formic acid in Water B) 0.1% Formic acid in Methanol
After the concentration of free drug and total drug has been determined by LCMS/MS, percent plasma protein binding can be calculated as follows:
[formula] Following this protocol, % fraction unbound in plasma from different species can be also measured.

The target in data set [2] is Human O-GlcNAcase (His-Tagged hOGA) (Homo sapiens (Human), UniProt O60502). In words: Human O-GlcNAcase enzyme inhibition assay. It counts as biochemical. To be noted: His-Tagged hOGA 20 nM, FL-GlcNAc 10 μM, 60 min, room temperature, pH 6.5; read-out: Enzymatic OGA IC50. As for the experimental part:
Example B01: Human O-GlcNAcase enzyme inhibition assay
5 μl of the appropriate concentration of a solution of inhibitor in McIlvaine's Buffer (pH 6.5) in 2% DMSO (for a dose response curve calculation) is added into each well of a 384-well plate (Greiner, 781900). Then, 20 nM of His-Tagged hOGA and 10 μM of FL-GlcNAc (Fluorescein mono-beta-D-(2-deoxy-2-N-acetyl) glucopyranoside; Marker Gene Technologies Inc, M1485) were added to the 384-well plate for a final volume of 20 μl. After incubation for 60 min at room temperature, the reaction was terminated by the addition of 10 μL of stop buffer (200 mM glycine, pH 10.75).

Sequence of Human O-GlcNAcase (His-Tagged hOGA) (O60502 whole entry): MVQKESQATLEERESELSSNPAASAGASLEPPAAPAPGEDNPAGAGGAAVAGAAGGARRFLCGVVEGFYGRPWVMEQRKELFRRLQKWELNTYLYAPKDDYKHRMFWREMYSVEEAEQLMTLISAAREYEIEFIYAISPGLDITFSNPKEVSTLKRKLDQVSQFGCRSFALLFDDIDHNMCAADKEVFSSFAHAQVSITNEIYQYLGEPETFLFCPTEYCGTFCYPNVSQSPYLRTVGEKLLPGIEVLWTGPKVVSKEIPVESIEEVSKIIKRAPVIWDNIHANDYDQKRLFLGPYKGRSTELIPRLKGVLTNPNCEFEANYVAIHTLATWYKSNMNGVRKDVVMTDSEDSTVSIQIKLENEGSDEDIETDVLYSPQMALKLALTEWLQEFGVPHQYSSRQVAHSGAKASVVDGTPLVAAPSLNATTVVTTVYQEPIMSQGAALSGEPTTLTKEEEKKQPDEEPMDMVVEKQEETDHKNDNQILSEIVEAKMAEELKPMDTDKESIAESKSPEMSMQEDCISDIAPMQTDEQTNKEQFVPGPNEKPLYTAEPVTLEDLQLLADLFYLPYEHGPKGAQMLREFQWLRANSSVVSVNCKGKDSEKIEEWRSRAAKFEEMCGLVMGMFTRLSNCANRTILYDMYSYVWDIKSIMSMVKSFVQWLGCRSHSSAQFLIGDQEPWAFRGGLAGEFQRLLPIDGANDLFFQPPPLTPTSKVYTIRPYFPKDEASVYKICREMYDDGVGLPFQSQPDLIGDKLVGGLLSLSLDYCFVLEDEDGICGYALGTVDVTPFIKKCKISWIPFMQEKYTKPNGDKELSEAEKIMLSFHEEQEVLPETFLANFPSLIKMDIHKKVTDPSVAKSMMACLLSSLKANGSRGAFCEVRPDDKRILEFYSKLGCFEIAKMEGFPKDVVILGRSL

By fraction unbound is commonly meant the share of the substance not bound to proteins or other matrix. Broadly, the IC50 is the concentration that inhibits the measured activity by half. `CC(c1ccc2c(c1)OCC2)N1CCN(c2ncc(C(=O)N=S(C)(C)=O)cn2)CC1` (racemic) [Example 10, 2-(4-(1-(2,3-dihydrobenzofuran-6-yl)ethyl)piperazin-1-yl)-N-(dimethyl(oxo)-λ^6-sulfanylidene)pyrimidine-5-carboxamide]: in data set [1], the unbound share (fraction unbound) at 5 h, 1 µM stood at 0.139. For the same compound, in data set [2], the IC50 was under 0.05 µM.

As for `CC(c1ccc2c(c1)OCC2)N1CCN(c2ccc(S(C)(=N)=O)cc2)CC1` (racemic) [Example 11, (4-(4-(1-(2,3-dihydrobenzofuran-6-yl)ethyl)piperazin-1-yl)phenyl)(imino)(methyl)-λ^6-sulfanone], in data set [1], the fraction unbound at 5 h, 1 µM came to 0.21. Further, the IC50 in data set [2] is under 0.05 µM.

For `CC(c1ccc2c(c1)OCCC2)N1CCN(c2ncc(S(C)(=N)=O)cn2)CC1` (racemic) [Example 21, (2-(4-(1-(chroman-7-yl)ethyl)piperazin-1-yl)pyrimidin-5-yl)(imino)(methyl)-λ^6-sulfanone], the unbound share (fraction unbound) at 5 h, 1 µM in data set [1] was found to be 0.222. The half-maximal inhibitory concentration (IC50) in data set [2] fell in the range of 0.05 to 0.2 µM.

Consider `CC(c1ccc2scnc2c1)N1CCN(c2ncc(S(C)(=N)=O)cn2)CC1` (racemic) [Example 22, (2-(4-(1-(benzo[d]thiazol-5-yl)ethyl)piperazin-1-yl)pyrimidin-5-yl)(imino)(methyl)-λ^6-sulfanone], for which the fraction unbound at 5 h, 1 µM in data set [1] was found to be 0.248. In data set [2], the IC50 was under 0.05 µM.

In the case of `CCS(=N)(=O)c1cnc(N2CCN(C(C)c3ccc4scnc4c3)CC2)nc1` (racemic) [Example 23, (2-(4-(1-(benzo[d]thiazol-5-yl)ethyl)piperazin-1-yl)pyrimidin-5-yl)(ethyl)(imino)-λ^6-sulfanone], the fraction unbound at 5 h, 1 µM in data set [1] turned out to be 0.215. In addition, the concentration for half-maximal inhibition (IC50) in data set [2] was under 0.05 µM.

Take `CCCS(=N)(=O)c1cnc(N2CCN(C(C)c3ccc4scnc4c3)CC2)nc1` (racemic) [Example 24, (2-(4-(1-(benzo[d]thiazol-5-yl)ethyl)piperazin-1-yl)pyrimidin-5-yl)(imino)(propyl)-λ^6-sulfanone]: the free fraction (fraction unbound) at 5 h, 1 µM in data set [1] is 0.134. Also, the IC50 in data set [2] was under 0.05 µM.

For `CN=S(C)(=O)c1cnc(N2CCN(C(C)c3ccc4scnc4c3)CC2)nc1` (racemic) [Example 25, (2-(4-(1-(benzo[d]thiazol-5-yl)ethyl)piperazin-1-yl)pyrimidin-5-yl)(methyl)(methylimino)-λ^6-sulfanone], the fraction unbound at 5 h, 1 µM in data set [1] stood at 0.211. In addition, the IC50 in data set [2] is under 0.05 µM.

Take `CC(c1ccc2scnc2c1)N1CCN(c2ccc(S(C)(=N)=O)cn2)CC1` (racemic) [Example 26, (6-(4-(1-(benzo[d]thiazol-5-yl)ethyl)piperazin-1-yl)pyridin-3-yl)(imino)(methyl)-λ^6-sulfanone]: the unbound share (fraction unbound) at 5 h, 1 µM in data set [1] was found to be 0.18. Moreover, the IC50 in data set [2] is under 0.05 µM.

Take `CCN=S(C)(=O)c1cnc(N2CCN(C(C)c3ccc4scnc4c3)CC2)nc1` (racemic) [Example 27]: in data set [1], the fraction unbound at 5 h, 1 µM came to 0.186. Moreover, in data set [2], the IC50 was under 0.05 µM.

For `COCCN=S(C)(=O)c1cnc(N2CCN(C(C)c3ccc4scnc4c3)CC2)nc1` (racemic) [Example 29, (2-(4-(1-(benzo[d]thiazol-5-yl)ethyl)piperazin-1-yl)pyrimidin-5-yl)((2-methoxyethyl)imino)(methyl)-λ^6-sulfanone], in data set [1], the fraction unbound at 5 h, 1 µM is 0.286. Further, the half-inhibitory concentration (IC50) in data set [2] is under 0.05 µM.

For `CC(c1ccc2scnc2c1)N1CCN(c2ncc(N=S(C)(C)=O)cn2)CC1` (racemic) [Example 31, ((2-(4-(1-(benzo[d]thiazol-5-yl)ethyl)piperazin-1-yl)pyrimidin-5-yl)imino)dimethyl-λ^6-sulfanone], the unbound share (fraction unbound) at 5 h, 1 µM in data set [1] is 0.229. Also, the IC50 in data set [2] was under 0.05 µM.

Turning to `CC(c1ccc2scnc2c1)N1CCN(c2ncc(C(=O)N=S(C)(C)=O)cn2)CC1` (racemic) [Example 32, 2-(4-(1-(benzo[d]thiazol-5-yl)ethyl)piperazin-1-yl)-N-(dimethyl(oxo)-λ^6-sulfanylidene)pyrimidine-5-carboxamide], in data set [1], the fraction unbound at 5 h, 1 µM came to 0.0535. Also, the IC50 in data set [2] is under 0.05 µM.

As to `CC(c1ccc2scnc2c1)N1CCN(c2ccc(S(C)(=N)=O)cc2)CC1` (racemic) [Example 33, (4-(4-(1-(benzo[d]thiazol-5-yl)ethyl)piperazin-1-yl)phenyl)(imino)(methyl)-λ^6-sulfanone], in data set [1], the fraction unbound at 5 h, 1 µM worked out at 0.132. In data set [2], the IC50 was 0.05 to 0.2 µM.

Turning to `Cc1nc2cc(C(C)N3CCN(c4ncc(S(C)(=N)=O)cn4)CC3)ccc2s1` (racemic) [Example 42, Imino(methyl)(2-(4-(1-(2-methylbenzo[d]thiazol-5-yl)ethyl)piperazin-1-yl)pyrimidin-5-yl)-λ^6-sulfanone], in data set [1], the fraction unbound at 5 h, 1 µM was found to be 0.101. Besides, the IC50 in data set [2] was under 0.05 µM.

For the compound `CN=S(C)(=O)c1cnc(N2CCN(C(C)c3ccc4sc(C)nc4c3)CC2)nc1` (racemic) [Example 45, methyl(2-(4-(1-(2-methylbenzo[d]thiazol-5-yl)ethyl)piperazin-1-yl)pyrimidin-5-yl)(methylimino)-λ^6-sulfanone], the fraction unbound at 5 h, 1 µM in data set [1] was 0.214. The IC50 in data set [2] is under 0.05 µM.

Turning to `Cc1nc2cc(C(C)N3CCN(c4ccc(S(C)(=N)=O)cn4)CC3)ccc2s1` (racemic) [Example 46, imino(methyl)(6-(4-(1-(2-methylbenzo[d]thiazol-5-yl)ethyl)piperazin-1-yl)pyridin-3-yl)-λ^6-sulfanone], the fraction unbound at 5 h, 1 µM in data set [1] turned out to be 0.115. Further, the IC50 in data set [2] is under 0.05 µM.

Turning to `CN=S(C)(=O)c1ccc(N2CCN(C(C)c3ccc4sc(C)nc4c3)CC2)nc1` (racemic) [Example 47, methyl(6-(4-(1-(2-methylbenzo[d]thiazol-5-yl)ethyl)piperazin-1-yl)pyridin-3-yl)(methylimino)-λ^6-sulfanone], in data set [1], the fraction unbound at 5 h, 1 µM worked out at 0.0959. Also, the IC50 in data set [2] was 0.05 to 0.2 µM.

With `CCN=S(C)(=O)c1cnc(N2CCN(C(C)c3ccc4sc(C)nc4c3)CC2)nc1` (racemic) [Example 48, (ethylimino)(methyl)(2-(4-(1-(2-methylbenzo[d]thiazol-5-yl)ethyl)piperazin-1-yl)pyrimidin-5-yl)-λ^6-sulfanone], in data set [1], the fraction unbound at 5 h, 1 µM turned out to be 0.0534. Further, in data set [2], the IC50 was under 0.05 µM.

As to `Cc1nc2cc(C(C)N3CCN(c4ncc(S(C)(=O)=NC(C)C)cn4)CC3)ccc2s1` (racemic) [Example 49, (isopropylimino)(methyl)(2-(4-(1-(2-methylbenzo[d]thiazol-5-yl)ethyl)piperazin-1-yl)pyrimidin-5-yl)-λ^6-sulfanone], the fraction unbound at 5 h, 1 µM in data set [1] is 0.0545. Moreover, the IC50 in data set [2] fell in the range of 0.05 to 0.2 µM.

Regarding `Cc1nc2cc(C(C)N3CCN(c4ncc(S(C)(=N)=O)cn4)CC3)ccc2o1` (racemic) [Example 55, imino(methyl)(2-(4-(1-(2-methylbenzo[d]oxazol-5-yl)ethyl)piperazin-1-yl)pyrimidin-5-yl)-λ^6-sulfanone], in data set [1], the unbound share (fraction unbound) at 5 h, 1 µM is 0.39. Besides, the half-maximal inhibitory concentration (IC50) in data set [2] was 0.05 to 0.2 µM.

For the compound `CC(c1ccc2scnc2c1)N1CCN(c2ncc3c(n2)CCS(=N)(=O)C3)CC1` (racemic) [Example 59, 2-(4-(1-(benzo[d]thiazol-5-yl)ethyl)piperazin-1-yl)-6-imino-5,6,7,8-tetrahydro-6λ^4-thiopyrano[4,3-d]pyrimidine 6-oxide], the fraction unbound at 5 h, 1 µM in data set [1] came out at 0.0848. In addition, the IC50 in data set [2] is under 0.05 µM.

Turning to `CC(c1ccc2c(c1)OCC2)N1CCN(c2ncc3c(n2)CCS(=N)(=O)C3)CC1` (racemic) [Example 61, 2-(4-(1-(2,3-dihydrobenzofuran-6-yl)ethyl)piperazin-1-yl)-6-imino-5,6,7,8-tetrahydro-6λ^4-thiopyrano[4,3-d]pyrimidine 6-oxide], the fraction unbound at 5 h, 1 µM in data set [1] was found to be 0.113. Also, the IC50 in data set [2] is under 0.05 µM.

Consider `CC(c1ccc2c(c1)OCC2)N1CCN(c2ncc(S(C)(=N)=O)cn2)CC1` (single isomer, unassigned) [Example 12], for which, in data set [1], the fraction unbound at 5 h, 1 µM was found to be 0.424. Also, the IC50 in data set [2] was under 0.05 µM.
